{
  "source": "patent US20250213639A1",
  "about": "(U.S. NUTRACEUTICALS, INC., d/b/a Valensa International, priority 2021, published 2025)",
  "key": {"5α-Reductase-1": {"target": "T1, 5α-Reductase-1 (Homo sapiens, UniProt P18405)", "T1 sequence (P18405 1-259)": "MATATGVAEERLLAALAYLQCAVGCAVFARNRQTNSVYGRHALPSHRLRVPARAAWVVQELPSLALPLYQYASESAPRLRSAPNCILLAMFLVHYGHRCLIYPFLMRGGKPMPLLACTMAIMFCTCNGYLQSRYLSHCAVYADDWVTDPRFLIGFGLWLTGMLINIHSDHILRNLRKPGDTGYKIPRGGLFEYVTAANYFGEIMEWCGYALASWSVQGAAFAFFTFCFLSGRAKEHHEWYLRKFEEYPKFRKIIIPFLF", "experiment": "5α-reductase inhibition by constituents of saw palmetto extract (FIGS. 2, 3), Type 1", "type": "biochemical"}, "5α-Reductase-2": {"target": "T2, 5α-Reductase-2 (Homo sapiens, UniProt P31213)", "T2 sequence (P31213 1-254)": "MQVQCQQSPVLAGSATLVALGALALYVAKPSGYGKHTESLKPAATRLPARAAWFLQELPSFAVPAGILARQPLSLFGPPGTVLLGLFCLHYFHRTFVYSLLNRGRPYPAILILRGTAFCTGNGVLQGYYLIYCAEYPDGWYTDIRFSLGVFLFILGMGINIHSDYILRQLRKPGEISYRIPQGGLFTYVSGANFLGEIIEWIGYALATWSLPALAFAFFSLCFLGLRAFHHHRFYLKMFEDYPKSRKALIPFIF", "experiment": "5α-reductase inhibition by constituents of saw palmetto extract (FIGS. 2, 3), Type 2", "type": "biochemical"}, "normal mice": {"system": "normal mice", "settings": "after about 20 days, normal shaved mice; cited from earlier work"}, "[1]": {"settings": "oral, guinea pigs, fur and skin; cited from earlier work"}, "DHT": {"system": "DHT", "settings": "cited from earlier work"}, "[2]": {"system": "men with mild to moderate androgenic alopecia", "settings": "1 milligram per day, 24 months; cited from earlier work"}},
  "data": [
    {"smiles": "CCCCCCCC/C=C\\CCCCCCCC(=O)O", "note": "[oleic acid]", "values": [
      {"measurement": "effectiveness for 5α-Reductase-1", "setting": "5α-Reductase-1", "result": "especially effective"},
      {"measurement": "effectiveness for 5α-Reductase-2", "setting": "5α-Reductase-2", "result": "not as much"}
    ]},
    {"smiles": "CCCCC/C=C\\C/C=C\\CCCCCCCC(=O)O", "note": "[linoleic acid]", "values": [
      {"measurement": "effectiveness for 5α-Reductase-1", "setting": "5α-Reductase-1", "result": "beneficial for both"},
      {"measurement": "hair growth", "setting": "normal mice", "result": "about 100%"}
    ]},
    {"smiles": "CC/C=C\\C/C=C\\C/C=C\\CCCCCCCC(=O)O", "note": "[Linolenic acid]", "values": [
      {"measurement": "share of that lipid found in the free fatty acid form", "setting": "[1]", "result": "Over 70%"}
    ]},
    {"smiles": "C[C@]12C=CC(=O)N[C@@H]1CC[C@@H]1[C@@H]2CC[C@]2(C)[C@@H](C(=O)Nc3cc(C(F)(F)F)ccc3C(F)(F)F)CC[C@@H]12", "note": "[Dutasteride]", "values": [
      {"measurement": "reduction of DHT levels in the entire body", "setting": "DHT; in vivo", "result": "more than 99%"}
    ]},
    {"smiles": "CC(C)(C)NC(=O)[C@H]1CC[C@H]2[C@@H]3CC[C@H]4NC(=O)C=C[C@]4(C)[C@H]3CC[C@]12C", "note": "[finasteride]", "values": [
      {"measurement": "decrease of the production of DHT", "setting": "DHT; in some formulations", "result": "about 70%"},
      {"measurement": "men who noted an improvement", "setting": "[2]", "result": 68, "unit": "%"}
    ]}
  ]
}
